We go through 14 molecules from patent US9458113B2 (Boehringer Ingelheim International GmbH, priority 2014, dated 2016).

The nature of data set [1]: Metabolic stability with human liver microsomes. The format is in vitro ADME. Conditions: pH 7.6; pooled human liver microsomes, 1 μM test compound, 37° C.; read-out: t1/2 INVITRO.
In data set [2] the target is Human neutrophil elastase (Homo sapiens (Human), UniProt P08246). As to the kind of experiment: Human Neutrophil Elastase Assay. Conditions: substrate MeOSuc-Ala-Ala-Pro-Val-AMC 250 μM, pH 7.5. The format is biochemical.
For another data set, the system named is human hepatocytes. Description: Metabolic stability with human hepatocytes. The format is in vitro ADME. Conditions: 1 μM test compound, well stirred model. On the procedure:
Assay for the Determination of Metabolic Stability with Human Hepatocytes
The metabolic degradation of the test compound is assayed in a human hepatocyte suspension. Human hepatocytes (typically cryopreserved) are incubated in an appropriate buffer system (e.g. Dulbecco's modified eagle medium plus 3.5 μg glucagon/500 mL, 2.5 mg insulin/500 mL and 3.75 mg/500 mL hydrocortison) containing 5% species serum. Following a (typically) […] preincubation in an incubator (37° C., 10% CO2), 5 μl of test compound solution (80 μM; from […] stock solution in DMSO diluted 1:25 with medium) are added into 395 μl hepatocyte suspension (cell density in the range 0.25-5*10^6 cells/mL, typically 1*10^6 cells/mL; final concentration of test compound 1 μM, final DMSO concentration 0.05%). The cells are incubated for six hours (incubator, orbital shaker) and samples (25 μl) are taken at 0, 0.5, 1, 2, 4 and 6 hours. Samples are transferred into acetonitrile and pelleted by centrifugation (5 min) The supernatant is transferred to a new 96-deepwell plate, evaporated under nitrogen and resuspended. The decline of parent compound is analyzed by LC-MS/MS.
The intrinsic clearance CL_[…] is calculated as follows: CL_[…]=Dose/AUC=(C0/CD)/(AUD+clast/k)*1,000/60
(C0: initial concentration in the incubation [μM], CD: cell density of vital cells [10^6 cells/mL], AUD: area under the data [μM*h], clast: concentration of last data point [μM], k: slope of the regression line for parent decline [h^−1])
The calculated in vitro hepatic intrinsic clearance Qh can be scaled up to the intrinsic in vivo hepatic clearance and used to predict hepatic in vivo blood clearance (CL) by the use of a liver model (well stirred model): CL_[…]_INVIVO [ml/min/kg]=(CL_[…] [μL/min/10^6 cells]*hepatocellularity [10^6 cells/g liver]*liver factor [g/kg bodyweight])/1,000 CL [ml/min/kg]=CL_[…]_INVIVO [ml/min/kg]*hepatic blood flow [ml/min/kg]/(CL_[…]_INVIVO [ml/min/kg]+hepatic blood flow [ml/min/kg]) Qh [%]=CL [ml/min/kg]/hepatic blood flow [ml/min/kg])
(Hepatocellularity, human: 120*10^6 cells/g liver; liver factor, human: 25.7 g/kg bodyweight; blood flow, human: 21 ml/(min*kg))
The calculated in-vitro hepatic intrinsic clearance values of selected compounds in the metabolic stability assay with human hepatocytes described above are listed in Table 15.

Data set [3] can be described thus: Drug transport across human Caco-2 cells. The data set is classed as in vitro ADME. The settings on record: apparent permeability coefficient, Caco-2 monolayers, pH 7.2, 37° C.; for Papp A→B at 10 µM: apical-to-basal (absorptive), read-out: PEAB; for Papp B→A at 10 µM: basal-to-apical (secretory), read-out: PEBA. An excerpt: Assay for Determination of Drug Transport Across Human Caco-2 Cells
The assay provides information on the potential of a compound to pass the cell membrane, on the extent of oral absorption as well as on whether the compound is actively transported by uptake and/or efflux transporters. For the measurement of permeability across polarized, confluent human cancer colon carcinoma cells 2 (Caco-2) cell monolayers grown on permeable filter supports are used as the in vitro absorption model.
Apparent permeability coefficients (PE) of the compounds across the Caco-2 monolayers are measured (pH 7.2, 37° C.) in apical-to-basal (AB) (absorptive) and basal-to-apical (BA) (secretory) transport direction. AB permeability (PEAB) represents drug absorption from the intestine into the blood and BA permeability (PEBA) drug secretion from the blood back into the intestine via both passive permeability as well as active transport mechanisms mediated by efflux and uptake transporters that are expressed on the Caco-2 cells. The compounds are assigned to permeability/absorption classes by comparison of the AB permeabilities with the AB permeabilities of reference compounds with known in vitro permeability and oral absorption in the human. Identical or similar permeabilities in both transport directions indicate passive permeation, vectorial permeability points to additional active transport mechanisms. […] Active transport is concentration-dependently saturable.
Caco-2 cells (1-2*10^5 cells/cm^2 area) are seeded on filter inserts (Costar transwell polycarbonate or PET filters, 0.4 μm pore size) and cultured (DMEM) for 10 to 25 days. Compounds are dissolved in appropriate solvent (like DMSO, […] stock solutions). Stock solutions are diluted with HTP-4 buffer (128.13 mM NaCl, 5.36 mM KCl, 1 mM MgSO4, 1.8 mM CaCl2, 4.17 mM NaHCO3, 1.19 mM Na2HPO4x7H2O, 0.41 mM NaH2PO4xH2O, 15 mM HEPES, 20 mM glucose, pH 7.2) to prepare the transport solutions (typically 10 μM compound, final DMSO<=0.5%). The transport solution (TL) is applied to the apical or basolateral donor side for measuring A-B or B-A permeability (3 filter replicates), respectively. The receiver side contains HTP-4 buffer supplemented with 2% BSA. Samples are collected at the start and end of experiment from the donor and at various time intervals for up to 2 hours also from the receiver side for concentration measurement by LC-MS/MS or scintillation counting. Sampled receiver volumes are replaced with fresh receiver solution.
The apparent permeability coefficients (PEAB and PEBA) of selected compounds in the Caco-2 drug transport assay described above are listed in Table 16.
Background: Caco-2 monolayers are a common model of the intestinal barrier.

Data set [4] addresses neutrophil elastase in zymosan-stimulated human plasma (Homo sapiens (Human), UniProt P08246). Description: Neutrophil elastase inhibitory activity in human plasma. The data set is classed as biochemical. Conditions: human plasma from zymosan-stimulated blood.
Description: Assay for the Determination of Neutrophil Elastase Inhibitory Activity in Human Plasma
Citrated blood from human healthy donors is mixed with zymosan suspension and incubated at room temperature. This leads to the stimulation of neutrophils and the release of neutrophil elastase into the plasma. The stimulated blood is centrifuged to generate the neutrophil elastase enriched plasma.
Various concentrations of the neutrophil elastase inhibitor are incubated with plasma. […] A dose response curve is generated to calculate the EC50 of the inhibitor.
Data set [5] in a line: Aqueous solubility (Shaked Flask Method). The settings on record: aqueous buffer, thermodynamic from solid, pH 6.8. The format is physicochemical. On the procedure: Assay for Determination of Aqueous Solubility (“Shaked Flask Method”)
Saturated solutions are prepared in well plates by adding an appropriate volume of selected aqueous media (typically in the range of 0.25-1.5 ml) into each well which contains a known quantity of solid drug substance (typically in the range 0.5-5.0 mg). The wells are shaken or stirred for a predefined time period (typically in a range of 2-24 h) and then filtered using appropriate filter membranes (typically PTFE-filters with 0.45 μm pore size). Filter absorption is avoided by discarding the first few drops of filtrate. The amount of dissolved drug substance is determined by UV spectroscopy or by HPLC with UV-detection. In addition, the pH of the aqueous saturated solution is measured using a glass-electrode pH meter.

Data set [6] can be described thus: Aqueous solubility (High Throughput Method). The format is physicochemical. The settings on record: McIlvaine buffer pH 6.8 with 2.5% DMSO, kinetic from dmso stock, McIlvaine buffer pH 6.8, 2.5% DMSO, 24 h shaking. On the procedure:
Assay for Determination of Aqueous Solubility (“High Throughput Method”)
Starting from a […] DMSO stock solution, aliquots are diluted with acetonitrile/water (1/1) and McIlvaine buffer pH 6.8, respectively. After 24 h of shaking, the solutions or suspensions are filtered and analyzed by LC-UV. The amount dissolved in buffer is compared to the amount dissolved in the acetonitrile/water (1/1) solution. Solubility is measured from 0.001 to 0.125 mg/ml at a DMSO concentration of 2.5%. If more than 90% of the compound is dissolved in buffer, the value is marked with “>”.

Converted amounts (≈) assume the structure as drawn.

Chain of Human neutrophil elastase (P08246 30-247): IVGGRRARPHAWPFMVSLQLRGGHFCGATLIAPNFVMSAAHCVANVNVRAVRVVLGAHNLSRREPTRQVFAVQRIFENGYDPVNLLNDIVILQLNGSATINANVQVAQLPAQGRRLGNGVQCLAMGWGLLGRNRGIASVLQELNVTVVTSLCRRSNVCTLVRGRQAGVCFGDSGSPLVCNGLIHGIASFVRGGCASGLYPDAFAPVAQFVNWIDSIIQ
Chain of neutrophil elastase in zymosan-stimulated human plasma (P08246 30-247): as above

For orientation: IC50 means the concentration needed to halve the response being measured. By EC50 is commonly meant the midpoint of the concentration-response curve. For `CN1C(=O)N(c2cccc(C(F)(F)F)c2)C2=C(C(=O)CC2)C1c1ccc(C#N)cc1-c1cnn(C)c1` (stereo not drawn) [Example 11.2], in data set [1], the half-life at 1 μM stood at 2 h. The same molecule had an IC50 in data set [2] of less than 1 nM. In the data set with human hepatocytes, this molecule showed a Qh of 24%. In data set [3], the Papp A→B at 10 µM came out at 61 ×10⁻⁶ cm/s and the Papp B→A at 10 µM came out at 76 ×10⁻⁶ cm/s. The same molecule returned an EC50 in data set [4] of 2 nM.
With `Cc1nnc(-c2cc(C#N)ccc2C2C3=C(CCC3=O)N(c3cccc(C(F)(F)F)c3)C(=O)N2C)o1` (stereo not drawn) [Example 13.1, 4-[3-Methyl-2,5-dioxo-1-(3-trifluoromethyl-phenyl)-2,3,4,5,6,7-hexahydro-1H-cyclopentapyrimidin-4-yl]-3-(5-methyl-[1,3,4]oxadiazol-2-yl)-benzonitrile], the half-life at 1 μM in data set [1] is greater than 2.17 h. For the same molecule, the IC50 in data set [2] was found to be 2.2 nM. The Qh in the data set on human hepatocytes turned out to be 16%. In data set [3], the Papp A→B at 10 µM stood at 49 ×10⁻⁶ cm/s and the Papp B→A at 10 µM was determined as 72 ×10⁻⁶ cm/s. This molecule displayed an EC50 in data set [4] of 2 nM.
With `CNC(=O)c1cc(C#N)ccc1[C@@H]1C2=C(CCC2=O)N(c2cccc(C(F)(F)F)c2)C(=O)N1C` [Example 2.1], in data set [1], the half-life at 1 μM was greater than 2.17 h. The same molecule yielded an IC50 in data set [2] of 1.8 nM. In the data set on human hepatocytes, this molecule had a Qh of 9%. Moreover, in data set [3], the Papp A→B at 10 µM was determined as 14 ×10⁻⁶ cm/s and the Papp B→A at 10 µM turned out to be 78 ×10⁻⁶ cm/s. This molecule displayed an EC50 in data set [4] of 2 nM.
On to `CN1C(=O)N(c2cccc(C(F)(F)F)c2)C2=C(C(=O)CCC2)C1c1ccc(C#N)cc1-c1ccn(C)c(=O)c1` (stereo not drawn) [Example 15.8, 4-[3-Methyl-2,5-dioxo-1-(3-trifluoromethyl-phenyl)-1,2,3,4,5,6,7,8-octahydro-quinazolin-4-yl]-3-(1-methyl-2-oxo-1,2-dihydro-pyridin-4-yl)-benzonitrile], for which the half-life at 1 μM in data set [1] was greater than 2.17 h. The molecule further gave an IC50 in data set [2] of 1.2 nM. For the same molecule, in data set [3], the Papp A→B at 10 µM came out at 3.5 ×10⁻⁶ cm/s and the Papp B→A at 10 µM stood at 57 ×10⁻⁶ cm/s. The molecule also returned an EC50 in data set [4] of 4 nM.
The solubility is the concentration that dissolves in the medium under given conditions. As for `CN1C(=O)N(c2cccc(C(F)(F)F)c2)C2=C(C(=O)CC2)[C@H]1c1ccc(C#N)cc1CNC1CCOCC1` [Example 25, 4-[(R)-3-Methyl-2,5-dioxo-1-(3-trifluoromethyl-phenyl)-2,3,4,5,6,7-hexahydro-1H-cyclopentapyrimidin-4-yl]-3-[(tetrahydro-pyran-4-ylamino)-methyl]-benzonitrile], the half-life at 1 μM in data set [1] is greater than 2.17 h. Moreover, inhibition in data set [2] was half-maximal at 1.9 nM (IC50). This molecule showed a Qh in the data set on human hepatocytes of 20%. Also, in data set [3], the Papp A→B at 10 µM turned out to be 16 ×10⁻⁶ cm/s and the Papp B→A at 10 µM came out at 96 ×10⁻⁶ cm/s. Further, the solubility in data set [5] is greater than 10 µg/mL. This molecule gave an EC50 in data set [4] of 7 nM.
Consider `CN1C(=O)N(c2cccc(C(F)(F)F)c2)C2=C(C(=O)CCC2)C1c1ccc(C#N)cc1-c1ccn(C)c(=O)c1` (single isomer, unassigned) [Example 20.b, 4-[3-Methyl-2,5-dioxo-1-(3-trifluoromethyl-phenyl)-1,2,3,4,5,6,7,8-octahydro-quinazolin-4-yl]-3-(1-methyl-2-oxo-1,2-dihydro-pyridin-4-yl)-benzonitrile], for which, in the data set on human hepatocytes, the Qh turned out to be 5%. In data set [3], the Papp A→B at 10 µM is 6.2 ×10⁻⁶ cm/s and the Papp B→A at 10 µM turned out to be 95 ×10⁻⁶ cm/s.
As for `CN1C(=O)N(c2cccc(C(F)(F)F)c2)C2=C(C(=O)CCC2)[C@H]1c1ccc(C#N)cc1-c1ccn(C)c(=O)c1` [Example 20.b, 4-[3-Methyl-2,5-dioxo-1-(3-trifluoromethyl-phenyl)-1,2,3,4,5,6,7,8-octahydro-quinazolin-4-yl]-3-(1-methyl-2-oxo-1,2-dihydro-pyridin-4-yl)-benzonitrile], in data set [1], the half-life at 1 μM is greater than 2.17 h. Moreover, the IC50 in data set [2] was less than 1 nM. Also, the solubility at 24 h in data set [6] was 72 µg/mL (≈ 135 µM). The solubility in data set [5] is greater than 10 µg/mL. In data set [4], this molecule gave an EC50 of 1 nM.
In the case of `CC(=O)N[C@H]1CCN(C(=O)c2cc(C#N)ccc2C2C3=C(CCC3=O)N(c3cccc(C(F)(F)F)c3)C(=O)N2C)C1` (stereo partly drawn) [Example 1.83], the IC50 in data set [2] turned out to be 2.2 nM.
Same read-out and setting: the value for `CN1C(=O)N(c2cccc(C(F)(F)F)c2)C2=C(C(=O)CCC2)C1c1ccc(C#N)cc1-c1cncs1` (stereo not drawn) [Example 15.3] was 1.9 nM; that for `CN1C(=O)N(c2cccc(C(F)(F)F)c2)C2=C(C(=O)CCC2)C1c1ccc(C#N)cc1C(=O)N1CCNCC1` (stereo not drawn) [Example 6.3] was 3.5 nM; that for `CN1C(=O)N(c2cccc(C(F)(F)F)c2)C2=C(C(=O)CC2)C1c1ccc(C#N)cc1C(=O)NCc1cnn(C)c1` (stereo not drawn) [Example 1.55] was 4.8 nM.
Same read-out and setting: the figure for `CN1C(=O)N(c2cccc(C(F)(F)F)c2)C2=C(C(=O)CC2)C1c1ccc(C#N)cc1-c1cncs1` (stereo not drawn) [Example 11.3] is 1.9 nM; for `CN1C(=O)N(c2cccc(C(F)(F)F)c2)C2=C(C(=O)CC2)C1c1ccc(C#N)cc1C(=O)N1Cc2cnn(C)c2C1` (stereo not drawn) [Example 1.67] it is 4.1 nM; for `CN1C(=O)N(c2cccc(C(F)(F)F)c2)C2=C(C(=O)CC2)C1c1ccc(C#N)cc1C(=O)NCCN1CCOCC1` (stereo not drawn) [Example 1.76] it is 4.5 nM.
